Test results published in patent US12492356B2, “Oxa-sandalwood-type fragrance compounds” (SYMRISE AG, priority 2020, dated 2025).

Tested on: panel of at least four experts
Assay: Odor detection threshold (ODT), olfactometer TO8, DIN standard EN 13725
Conditions: for ODT / ODT in air: olfactometer TO8, panel of at least four experts, DIN EN 13725
Text: The odor detection threshold (in the following abbreviated as “ODT”) is defined as the lowest concentration of a certain odorous compound (gaseous, sensorially active substance) which is perceivable and thus which can be distinguished with certainty from a blank reference under standard conditions. Generally, lower ODT values are preferred as a lower amount of the fragrance compound is required in order to a achieve strong odor impressions and thus lower amounts can be used for perfuming. However, as the threshold depends on various factors such as concentration, solubility, partition coefficient between air and the olfactory active substance, vapor pressure, polarity, molecular mass etc., predictions referring to the ODT of a substance are difficult to make. Table 2 indicates the ODT values of preferred embodiment in comparison to commercially available Brahmanol® (Symrise AG) and Sandranol® (Symrise AG). The ODT was measured using an olfactometer TO8 and a panel of at least four experts according to DIN standard EN 13725. According to the DIN standard EN 13725, the odor threshold value is defined as the concentration of an odorous substance at which, under defined test conditions, the probability of perceiving the sample is 0.5, i.e. 50% of the test persons indicate an odor perception. Thereby, the quantitative ODT value is given as the ratio of volume fractions of an odor-free comparison matrix, such as air, to the examined matrix at which the odor could just be perceived, i.e. a dilution factor.

SMILES | ODT | ODT in air [ng/L] | ODT value lower by a factor (comparator not named in the sentence (commercial analogue)) | threshold value reduced by the factor (in comparison to Brahmanol) (compared with Brahmanol)
CC1=CCC(CCC(C)CO)C1(C)C (centres unmarked) [Brahmanol ®, 2-methyl-4-(2′,2′,3′-trimethyl-3′-cyclopenten-1′-yl)-butan-1-ol, reference compound] | 0.0173 ppm (v/v) | 6.9 | – | –
COCC1=CCC(C/C=C(\C)CO)C1(C)C (centres unmarked) [Compound 1, 4-[3-(Methoxymethyl)-2,2-dimethyl-cyclopent-3-en-1-yl]-2-methyl-but-2-en-1-ol] | 0.0089 ppm (v/v) | 7.1 | – | –
COCC1=CCC(CCC(C)CO)C1(C)C (centres unmarked) [Compound 2, 4-[3-(Methoxymethyl)-2,2-dimethyl-cyclopent-3-en-1-yl]-2-methyl-butan-1-ol] | 0.00285 ppm (v/v) | 7.6 | 3 | –
CC/C(=C\CC1CC=C(COC)C1(C)C)CO (centres unmarked) [Compound 3, 2-Ethyl-4-[3-(methoxymethyl)-2,2-dimethyl-cyclopent-3-en-1-yl]but-2-en-1-ol] | 0.0019 ppm (v/v) | 7.7 | – | about 10
C=C(CC(C)CO)C1CC=C(COC)C1(C)C (centres unmarked) [Compound 4, 4-[3-(Methoxymethyl)-2,2-dimethyl-cyclopent-3-en-1-yl]-2-methyl-pent-4-en-1-ol] | 0.0025 ppm (v/v) | 7.6 | – | –
CC/C(=C\CC1CC=C(C)C1(C)C)CO (centres unmarked) [Sandranol ®, 2-ethyl-4-(2′,2′,3′-trimethyl-3′-cyclopenten-1′-yl)-2-buten-1-ol, reference compound] | 0.000205 ppm (v/v) | 7.6 | – | –
